System: Plutella xylostella
Experiment: Plutella xylostella greenhouse spray test on cauliflower and Bt cauliflower (cry9C)
Type: in vivo
Description: Seven-week-old cauliflower plants (ordinary cauliflower, variety: Marner Allfrüh) and Bt cauliflower ([…], contains cry9C) were sprayed with the test insecticides with the aid of a track sprayer (200 l/ha). After drying, each of the plants was infected with 5 L2 larvae and 5 L3 larvae of Plutella xylostella. After 2, 4 and 7 days (DAA), feeding damage and mortality were scored. The test was carried out in a greenhouse at 23° C. and a relative atmospheric humidity of 60%.

[1] = 1 g active substance/ha, 2 DAA, Bt cauliflower
[2] = 1 g active substance/ha, 2 DAA, cauliflower
[3] = 1 g active substance/ha, 4 DAA, Bt cauliflower
[4] = 1 g active substance/ha, 4 DAA, cauliflower
[5] = 1 g active substance/ha, 7 DAA, Bt cauliflower
[6] = 1 g active substance/ha, 7 DAA, cauliflower
[7] = 3 g active substance/ha, 2 DAA, Bt cauliflower
[8] = 3 g active substance/ha, 2 DAA, cauliflower
[9] = 3 g active substance/ha, 4 DAA, Bt cauliflower
[10] = 3 g active substance/ha, 4 DAA, cauliflower
[11] = 3 g active substance/ha, 7 DAA, Bt cauliflower
[12] = 3 g active substance/ha, 7 DAA, cauliflower
[13] = 10 g active substance/ha, 2 DAA, Bt cauliflower
[14] = 10 g active substance/ha, 2 DAA, cauliflower
[15] = 10 g active substance/ha, 4 DAA, Bt cauliflower
[16] = 10 g active substance/ha, 4 DAA, cauliflower
[17] = 10 g active substance/ha, 7 DAA, Bt cauliflower
[18] = 10 g active substance/ha, 7 DAA, cauliflower
[19] = 30 g active substance/ha, 2 DAA, Bt cauliflower
[20] = 30 g active substance/ha, 2 DAA, cauliflower
[21] = 30 g active substance/ha, 4 DAA, Bt cauliflower
[22] = 30 g active substance/ha, 4 DAA, cauliflower
[23] = 30 g active substance/ha, 7 DAA, Bt cauliflower
[24] = 30 g active substance/ha, 7 DAA, cauliflower
[25] = 100 g active substance/ha, 2 DAA, Bt cauliflower
[26] = 100 g active substance/ha, 2 DAA, cauliflower
[27] = 100 g active substance/ha, 4 DAA, Bt cauliflower
[28] = 100 g active substance/ha, 4 DAA, cauliflower
[29] = 100 g active substance/ha, 7 DAA, Bt cauliflower
[30] = 100 g active substance/ha, 7 DAA, cauliflower

## CS/C(C)=N\OC(=O)N(C)SN(C)C(=O)O/N=C(\C)SC [Thiodicarb]
[1]
  % feeding damage: 0%
  % mortality: 100%
[2]
  % feeding damage: 10%
  % mortality: 0%
[3]
  % feeding damage: 0%
  % mortality: 100%
[4]
  % feeding damage: 10%
  % mortality: 0%
[5]
  % feeding damage: 0%
  % mortality: 100%
[6]
  % feeding damage: 15%
  % mortality: 0%
[7]
  % feeding damage: 0%
  % mortality: 100%
[8]
  % feeding damage: 10%
  % mortality: 0%
[9]
  % feeding damage: 0%
  % mortality: 100%
[10]
  % feeding damage: 10%
  % mortality: 0%
[11]
  % feeding damage: 0%
  % mortality: 100%
[12]
  % feeding damage: 15%
  % mortality: 0%
[13]
  % feeding damage: 0%
  % mortality: 90%
[14]
  % feeding damage: 10%
  % mortality: 0%
[15]
  % feeding damage: 0%
  % mortality: 100%
[16]
  % feeding damage: 10%
  % mortality: 0%
[17]
  % feeding damage: 0%
  % mortality: 100%
[18]
  % feeding damage: 15%
  % mortality: 0%
[19]
  % feeding damage: 0%
  % mortality: 100%
[20]
  % feeding damage: 10%
  % mortality: 0%
[21]
  % feeding damage: 0%
  % mortality: 100%
[22]
  % feeding damage: 10%
  % mortality: 0%
[23]
  % feeding damage: 0%
  % mortality: 100%
[24]
  % feeding damage: 15%
  % mortality: 0%
[25]
  % feeding damage: 0%
  % mortality: 100%
[26]
  % feeding damage: 10%
  % mortality: 0%
[27]
  % feeding damage: 0%
  % mortality: 100%
[28]
  % feeding damage: 10%
  % mortality: 0%
[29]
  % feeding damage: 0%
  % mortality: 100%
[30]
  % feeding damage: 10%
  % mortality: 0%

## CCc1nn(C)c(C(=O)NCc2ccc(Oc3ccc(C)cc3)cc2)c1Cl [Tolfenpyrad]
[7]
  % feeding damage: 3%
  % mortality: 10%
[8]
  % feeding damage: 10%
  % mortality: 0%
[9]
  % feeding damage: 10%
  % mortality: 30%
[10]
  % feeding damage: 10%
  % mortality: 0%
[11]
  % feeding damage: 10%
  % mortality: 50%
[12]
  % feeding damage: 10%
  % mortality: 0%
[13]
  % feeding damage: 10%
  % mortality: 0%
[14]
  % feeding damage: 10%
  % mortality: 0%
[15]
  % feeding damage: 10%
  % mortality: 50%
[16]
  % feeding damage: 10%
  % mortality: 0%
[17]
  % feeding damage: 10%
  % mortality: 50%
[18]
  % feeding damage: 10%
  % mortality: 0%
[19]
  % feeding damage: 0%
  % mortality: 60%
[20]
  % feeding damage: 10%
  % mortality: 0%
[21]
  % feeding damage: 0%
  % mortality: 100%
[22]
  % feeding damage: 10%
  % mortality: 0%
[23]
  % feeding damage: 0%
  % mortality: 100%
[24]
  % feeding damage: 10%
  % mortality: 0%
[25]
  % feeding damage: 10%
  % mortality: 20%
[26]
  % feeding damage: 5%
  % mortality: 0%
[27]
  % feeding damage: 10%
  % mortality: 100%
[28]
  % feeding damage: 5%
  % mortality: 20%
[29]
  % feeding damage: 10%
  % mortality: 100%
[30]
  % feeding damage: 5%
  % mortality: 0%
